Patent publication US12582809B2, “Treatment of a disease of the gastrointestinal tract with a PDE4 inhibitor” (BT Bidco, Inc., priority 2018, dated 2026)

Key:
[1] = design: species or system Yorkshire-Cross farm swine; conditions: in vivo
Procedure: The primary objective of this study was to compare the tissue, plasma, rectal sample, and GI content pharmacokinetics of tacrolimus through oral versus intra-cecal ingestible device delivery in normal Yorkshire-Cross farm swine.
(§1) No further randomization procedure was employed.
Animals in Group 1 received an ingestible device containing 0.8 mL of vehicle solution (80% alcohol, 20% HCO-60). Animals in Group 2 received orally […] liquid formulation of tacrolimus at 4 mg/0.8 mL per animal (Prograf: 5 mg/mL). Animals in Group 3 received intra-cecally an ingestible device containing tacrolimus at 1 mg in 0.8 mL per ingestible device. Animals in Group 4 received intra-cecally an ingestible device containing tacrolimus at 2 mg in 0.8 mL per ingestible device. Animals in Group 5 received intra-cecally an ingestible device containing tacrolimus at 4 mg in 0.8 mL per ingestible device. To control for potential confounding effects of the surgery, all groups fast on Day −11 at least 24 hr before being subjected to anesthesia followed by surgical placements of a cecal port by a veterinary surgeon at Day −10. All animals were fasted for at least 12 hr prior to dosing on Day 1. Animals were dosed via either intra-cecal dosing (IC) or oral dosing (PO) at Day 1 (between 6-8 p.m.). All animals resumed feeding at approximately 4 hours after dose (11-12 p.m. after dosing).
Animals in Group 1 (Vehicle Control) were administered a single intra-cecal ingestible device containing 0.8 mL Vehicle solution (80% alcohol, 20% castor oil (HCO-60) on Day 1. On Day −10 the animals were anesthetized, and a veterinary surgeon surgically placed an intra-cecal port in each animal. On Day 1, each animal was placed into a sling then a single intra-cecal ingestible device containing 0.8 mL vehicle solution (80% alcohol, 20% castor oil (HCO-60)) is introduced by the veterinary surgeon into the cecum via the cecal port in each animal. Following ingestible device placement, the animals were removed from the slings and placed back into their pens with water. All animals resumed feeding at approximately 4 hours after dose. […] A total of 60 samples were collected.
Approximately 200˜400 mg of rectal content were collected, if available, with a fecal swab (Copan Diagnostics Nylon Flocked Dry Swabs, 502CS01). The fecal swab was pre-weighed and weighed after collection in the collection tube (Sterile Tube and Cap No Media, PFPM913S), and the sample weight was recorded. The fecal swab was broken via the breakpoint, and was stored in the collection tube, and immediately frozen at −70° C. […] Immediately following euthanasia, tissue was collected.
For tissue necropsy, small intestine fluid and cecal fluid were collected separately from all the animals into two separate square plastic bottles, and stored at −20° C. The length and diameter of the cecum and the colon was measured from one animal in each group and recorded for reference. Tissues were collected for pharmacokinetic analyses and include mesenteric lymph nodes, a Peyer's Patch, and five gastrointestinal sections, including cecum, proximal colon, transverse colon, distal colon, and rectum. All samples were weighed, and the tissue sample weights were recorded. In each of the five gastrointestinal sections, tissue samples were collected in three different areas where the mucosal surface was visible and not covered by luminal content by using an 8.0-mm punch biopsy tool. Around 3 grams of the total punched sample were collected into a pre-weighed 15-mL conical tube, and the tissue weight was recorded. Three mesenteric lymph nodes were collected from different areas and weighed. At least one Peyer's Patch was collected and weighed.
Luminal contents were collected for pharmacokinetic analyses from the surface of the tissue from each of five gastrointestinal sections: cecum, proximal colon, transverse colon, distal colon, and rectum (total of 75). […]

[2] = Pharmacokinetic study of oral vs intra-cecal administration of tacrolimus (Example 13); design: species or system Yorkshire-Cross farm swine; conditions: in vivo, 0.09 mg/kg
Source text: as §1

[3] = female, Yorkshire-Cross, pig, po, 12 h

SMILES: C=CC[C@@H]1/C=C(\C)C[C@H](C)C[C@H](OC)[C@H]2O[C@@](O)(C(=O)C(=O)N3CCCC[C@H]3C(=O)O[C@H](/C(C)=C/[C@@H]3CC[C@@H](O)[C@H](OC)C3)[C@H](C)[C@@H](O)CC1=O)[C@H](C)C[C@@H]2OC [tacrolimus]
- exposure AUC [1]: < 2000-12 ng·h/mL
- luminal content concentration, distal colon, IC capsule vs PO [1]: Significantly higher
- luminal content concentration, spiral colon, IC capsule vs PO [1]: Significantly higher
- luminal content concentration, transverse colon, IC capsule vs PO [1]: Significantly higher
- tissue concentration, spiral colon, IC capsule vs PO [1]: Significantly higher
- tissue concentration, transverse colon, IC capsule vs PO [1]: Significantly higher
- level of tacrolimus detected in tissue ([1]; po): No measurable level
- Kp at 12 h ([2]; female, Yorkshire-Cross, pig, po): 0
- Ratio Tissue(mean) (ng/g)/Trough(12 hr) (ng/mL), Cecum [2, 3]: 0
- Ratio Tissue(mean) (ng/g)/Trough(12 hr) (ng/mL), Distal Colon [2, 3]: 0
- Ratio Tissue(mean) (ng/g)/Trough(12 hr) (ng/mL), Proximal Colon [2, 3]: 0
- Ratio Tissue(mean) (ng/g)/Trough(12 hr) (ng/mL), Transverse colon [2, 3]: 0
- Trough (12 hr) ([2]; female, Yorkshire-Cross, swine, po, 12 h): 0.568 ng/mL
- concentration at 12 h ([2]; female, Yorkshire-Cross, swine, po, Trough (12 hr)): 0.568 ± 0.291 ng/mL
- AUC0-12 hours in the blood, intra-cecal vs oral [2]: higher
- mean concentration in the blood, intra-cecal vs oral [2]: higher
